Source: ChEMBL document CHEMBL1201862, “PubChem BioAssay data set” (2004)
The source made the active and inactive calls.

How the values were obtained:
H4 = test: Luminescence Cell-Based Dose Response HTS to Identify Activators of 5'UTR Stem-Loop Driven Prion Protein mRNA Translation in H4 Neuroglioblastoma Cells. [Related pubchem assays: 1829 (Project Summary), 1814 (Primary HTS)]; type: functional; details: Homo sapiens
Protein RecA = molecular target: T1, Protein RecA (Mycobacterium tuberculosis, UniProt P9WHJ3); test: Fluorescence Cell-Free Homogeneous Dose Retest to Identify Inhibitors of RecA-Intein Splicing Activity. [Related pubchem assays (depositor defined):AID2097, AID2223, AID489010, AID492950]; type: functional
T1 sequence (P9WHJ3 whole entry): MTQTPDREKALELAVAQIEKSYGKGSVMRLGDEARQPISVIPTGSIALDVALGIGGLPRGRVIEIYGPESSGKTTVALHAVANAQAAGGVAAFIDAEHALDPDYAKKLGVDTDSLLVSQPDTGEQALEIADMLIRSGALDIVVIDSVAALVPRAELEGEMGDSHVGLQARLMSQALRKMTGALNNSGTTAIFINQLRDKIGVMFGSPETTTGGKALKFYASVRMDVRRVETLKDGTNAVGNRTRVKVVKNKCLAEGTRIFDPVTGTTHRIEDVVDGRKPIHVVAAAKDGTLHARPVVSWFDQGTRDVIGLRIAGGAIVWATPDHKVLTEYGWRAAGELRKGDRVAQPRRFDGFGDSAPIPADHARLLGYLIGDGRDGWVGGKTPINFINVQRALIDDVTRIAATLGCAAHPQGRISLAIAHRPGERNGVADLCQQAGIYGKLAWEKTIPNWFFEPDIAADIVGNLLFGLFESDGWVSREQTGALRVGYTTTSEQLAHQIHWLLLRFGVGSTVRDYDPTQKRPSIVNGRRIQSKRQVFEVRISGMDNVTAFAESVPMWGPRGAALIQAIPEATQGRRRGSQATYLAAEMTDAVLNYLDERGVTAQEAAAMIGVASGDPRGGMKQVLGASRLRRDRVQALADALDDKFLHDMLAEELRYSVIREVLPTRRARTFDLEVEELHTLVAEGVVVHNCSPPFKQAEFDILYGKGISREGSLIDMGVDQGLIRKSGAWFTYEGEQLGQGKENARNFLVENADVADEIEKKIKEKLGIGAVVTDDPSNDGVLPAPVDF

[1] = Luminescence Cell-Based Dose Response HTS to Identify Activators of Luciferase Translation or Activity in H4 […] Cells. [Related pubchem assays: 1829 (Project Summary), 1814 (Primary HTS)]; type: functional
[2] = molecular target: T2, Replicative DNA helicase DnaB (Mycobacterium tuberculosis, UniProt P9WMR3); test: DnaB intein splicing inhibitors, dose response, biochemical, cell-free fluorescence (AID 449749); type: functional
T2 sequence (P9WMR3 whole entry): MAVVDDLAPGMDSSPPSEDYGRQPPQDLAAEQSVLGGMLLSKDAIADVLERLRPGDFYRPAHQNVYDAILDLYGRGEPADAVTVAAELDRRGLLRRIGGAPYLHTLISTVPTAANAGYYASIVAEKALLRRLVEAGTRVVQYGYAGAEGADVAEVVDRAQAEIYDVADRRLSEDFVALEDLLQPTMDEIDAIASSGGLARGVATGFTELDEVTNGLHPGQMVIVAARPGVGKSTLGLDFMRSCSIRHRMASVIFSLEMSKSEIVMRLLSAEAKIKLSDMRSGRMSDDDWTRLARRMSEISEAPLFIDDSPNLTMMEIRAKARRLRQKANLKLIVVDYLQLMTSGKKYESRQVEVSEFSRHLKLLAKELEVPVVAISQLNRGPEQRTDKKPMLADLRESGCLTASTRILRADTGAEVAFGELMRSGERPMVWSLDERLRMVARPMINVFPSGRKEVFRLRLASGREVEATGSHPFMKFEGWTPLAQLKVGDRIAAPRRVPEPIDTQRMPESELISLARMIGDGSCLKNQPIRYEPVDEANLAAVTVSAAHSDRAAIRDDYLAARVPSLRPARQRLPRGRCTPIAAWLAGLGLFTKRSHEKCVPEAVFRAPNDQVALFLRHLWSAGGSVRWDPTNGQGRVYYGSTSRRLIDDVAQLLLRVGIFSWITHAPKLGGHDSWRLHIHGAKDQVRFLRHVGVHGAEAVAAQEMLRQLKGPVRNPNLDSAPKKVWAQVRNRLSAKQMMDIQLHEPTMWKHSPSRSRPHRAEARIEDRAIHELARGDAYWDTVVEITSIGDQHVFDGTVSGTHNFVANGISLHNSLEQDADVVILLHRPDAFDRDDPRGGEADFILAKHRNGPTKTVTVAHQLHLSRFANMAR

[3] = Luminescence Cell-Based Dose Confirmation HTS to Identify Activators of 5'UTR Stem-Loop Driven Alpha-Synuclein mRNA Translation in H4 Neuroglioblastoma Cells. [Related pubchem assays: 1829 (Project Summary), 1814 (Primary HTS)]; type: functional
[4] = molecular target: T3, Heat shock factor protein 1 (Mus musculus, UniProt P38532); test: enhancement of HSF1-driven luciferase signal – cell-based, NIH3T3, luminescence, dose retest, confirmation (AID 435004); type: functional;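 further: stress induced by proteasome inhibitor MG132 added 30 min after compound; luciferase reporter driven by HSF1 response element in NIH3T3 cells; actives raise luminescence as potentiators of the MG132 stress response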
T3 sequence (P38532 whole entry): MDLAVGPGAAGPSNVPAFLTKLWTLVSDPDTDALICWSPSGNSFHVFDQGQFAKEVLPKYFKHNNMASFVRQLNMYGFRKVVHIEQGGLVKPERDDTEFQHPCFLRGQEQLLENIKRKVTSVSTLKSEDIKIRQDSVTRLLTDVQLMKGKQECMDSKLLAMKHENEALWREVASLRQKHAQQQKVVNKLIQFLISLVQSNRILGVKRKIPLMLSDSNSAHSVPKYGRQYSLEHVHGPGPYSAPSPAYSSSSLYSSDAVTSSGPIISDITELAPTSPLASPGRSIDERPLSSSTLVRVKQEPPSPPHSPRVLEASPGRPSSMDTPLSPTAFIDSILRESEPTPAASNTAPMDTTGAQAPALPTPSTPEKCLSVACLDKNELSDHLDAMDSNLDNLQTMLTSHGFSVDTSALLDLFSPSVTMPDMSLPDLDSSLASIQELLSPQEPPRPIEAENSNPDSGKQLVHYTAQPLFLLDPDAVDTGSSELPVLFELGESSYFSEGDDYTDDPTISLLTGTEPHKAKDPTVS

[5] = reduction of Shn3 3'UTR-driven luciferase in osteoblasts – cell-based, Clone20 osteoblasts, firefly luciferase, cherry-picked, dose response (AID 624132); type: functional;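 further: firefly luciferase luminescence from reporter carrying the Shn3 3'UTR in osteoblasts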
[6] = loss of viability in HepG2 cells – cell-based, CellTiter-Glo, cherry-picked, cytotoxicity control for Shn3 inhibitor project, dose response (AID 624134); type: functional
[7] = non-specific 3'UTR reporter inhibition in Clone20-Shn3RL – cell-based, Renilla luciferase, cherry-picked, counter-screen for Shn3 inhibitor project, dose response (AID 624133); type: functional
[8] = molecular target: T4, Carboxy-terminal domain RNA polymerase II polypeptide A small phosphatase 1 (Homo sapiens, UniProt Q9GZU7); test: CTDSP1 inhibitors, concentration-response, biochemical, absorbance readout, ultra-high-throughput screen actives (AID 540297); type: functional
T4 sequence (Q9GZU7 whole entry): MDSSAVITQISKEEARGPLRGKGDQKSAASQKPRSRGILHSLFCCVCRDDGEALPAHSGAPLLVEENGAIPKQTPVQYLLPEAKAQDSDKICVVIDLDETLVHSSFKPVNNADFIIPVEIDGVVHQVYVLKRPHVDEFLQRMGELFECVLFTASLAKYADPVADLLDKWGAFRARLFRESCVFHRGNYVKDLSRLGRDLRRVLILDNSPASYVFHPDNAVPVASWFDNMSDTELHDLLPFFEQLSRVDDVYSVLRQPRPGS

[9] = P. falciparum Dd2 growth inhibitors, dose response, SYBR Green, cherry-picked samples (AID 1159567); type: functional, cell-based

Cc1ccc(-n2nc(C)c3c2OC(N)=C(C#N)C3c2ccc(F)cc2)cc1 (configuration not stated)
EC50 (H4): > 120 µM (not active)
EC50 (Protein RecA): 6.09 µM (active)
EC50 [1]: > 120 µM (not active)
AC50 [2]: 14.2 µM (active)
EC50 [3]: > 120 µM (not active)

Fc1ccc(NC(S)=Nc2cc(Cl)ccc2Cl)cc1
EC50 [4]: > 260 µM (inactive)

COc1ccc(C(=O)C2C(c3ccc(-c4ccccc4[N+](=O)[O-])o3)NC(=O)NC2(O)C(F)(F)F)cc1 (configuration not stated)
EC50 (Protein RecA): 21.5 µM (active)
AC50 [2]: 14.6 µM (active)

S=C(Nc1ccccc1)Nc1ccc(Cl)cn1
EC50 [4]: > 260 µM (inactive)

Clc1ccc(SCc2csc(N3CCOCC3)n2)cc1
EC50 [4]: 51.8 µM (active)

CCCn1c(SCC(=O)c2cc(OC)ccc2OC)nnc1C(C)C
EC50 [4]: 62.4 µM (active)

CCOC(=O)c1c(NC(=O)C2c3ccccc3Oc3ccccc32)sc(C(C)=O)c1C
AC50 [5]: 4.67 µM (active)
AC50 [6]: 61.5 µM (active)
AC50 [7]: 13.6 µM (active)

CC(C)C[C@H]1CNC(=S)N1CC1CCN(CC2CCC(C(C)(C)C)CC2)CC1 (some centres not stated)
AC50 [5]: 4.05 µM (active)
AC50 [6]: 21.5 µM (active)
AC50 [7]: 4.48 µM (active)

C/C(CC(=O)Nc1cccnc1)=N\NC(=O)c1ccc([N+](=O)[O-])c(Cl)c1
EC50 (Protein RecA): 4.18 µM (active)
AC50 [2]: 20.4 µM (active)

CCOc1cc(/C=N/NC(=O)CSc2nnc(C)s2)ccc1OCc1ccccc1Cl
IC50 [8]: 10.1 µM (active)

O=C(N/N=C/c1ccc(OC(=O)c2cccs2)cc1)c1ccc(F)cc1
IC50 [8]: > 80 µM (inactive)

COc1ccc(NC(=O)N(C)C[C@H]2Oc3ccc(NC(=O)Nc4ccc(C(F)(F)F)cc4)cc3CC(=O)N([C@H](C)CO)C[C@@H]2C)cc1
AC50 [9]: 3.41 µM (active)

CCCN1C[C@@H](C)[C@H](OC)CN(C)C(=O)c2ccc(NC(=O)c3ccc4c(c3)OCO4)cc2OC[C@H]1C
AC50 [9]: 3.45 µM (active)

c1ccc(CN2C[C@@H]3N[C@H](C2)[C@H]3c2ccc(-c3ccncc3)cc2)cc1
AC50 [9]: 9.92 µM (active)

O=C(c1ccc(F)cc1)N1CC(=O)N2[C@H](CO)[C@@H](c3ccc(C#Cc4ccc(F)cc4)cc3)[C@@H]2C1
AC50 [9]: 5.03 µM (active)

C/C=C/c1ccc2c(c1)[C@@H]1[C@@H](CCN1C(=O)C1CCCC1)[C@H](CO)N2
AC50 [9]: 12.7 µM (active)

COc1ccc2c3c([nH]c2c1)[C@H](CO)N(C(=O)Nc1ccc(F)cc1)CC31CCN(C(=O)c2ccccn2)CC1
AC50 [9]: 12.4 µM (active)
